ChEMBL document CHEMBL1141028, “Novel NGF-potentiating diterpenoids from a Brazilian medicinal plant, Ptychopetalum olacoides” (Bioorg Med Chem Lett, 2009)
Active and inactive are the calls of the source. No cut-off for these calls is given here.

Tests used:
[1] = tested on: PC-12; assay: Enhancement of neurite outgrowth in rat PC12 cells assessed as morphological changes after 4 days by phase-contrast microscopy in absence of NGF; assay type: functional, cell-based
[2] = tested on: PC-12; assay: Enhancement of neurite length extending from cell bodies in NGF-mediated rat PC12 cells at 0.1 to 50 uM after 4 days; assay type: functional, cell-based
[3] = tested on: PC-12; assay: Enhancement of NGF-induced neurite outgrowth in rat PC12 cells assessed as morphological changes at 0.1 to 50 uM after 4 days by phase-contrast microscopy; assay type: functional, cell-based
[4] = tested on: PC-12; assay: Cytotoxicity against rat PC12 cells at 50 uM; assay type: cell-based; conditions: pc-12, 50 µM
[5] = tested on: PC-12; assay: Enhancement of neurite length extending from cell bodies in NGF-mediated rat PC12 cells at 30 uM after 4 days; assay type: functional
[6] = tested on: PC-12; assay: Enhancement of neurite length extending from cell bodies in NGF-mediated rat PC12 cells at 1 uM after 4 days; assay type: functional
[7] = tested on: PC-12; assay: Enhancement of neurite length extending from cell bodies in NGF-mediated rat PC12 cells at 10 uM after 4 days; assay type: functional
[8] = tested on: PC-12; assay: Enhancement of NGF-induced neurite outgrowth in rat PC12 cells assessed as morphological changes after 4 days by phase-contrast microscopy; assay type: functional, cell-based
[9] = tested on: PC-12; assay: Enhancement of neurite length extending from cell bodies in NGF-mediated rat PC12 cells at 0.1 uM after 4 days; assay type: functional
[10] = tested on: PC-12; assay: Enhancement of neurite length extending from cell bodies in NGF-mediated rat PC12 cells at 50 uM after 4 days; assay type: functional
[11] = tested on: PC-12; assay: Enhancement of neurite length extending from cell bodies in NGF-mediated rat PC12 cells after 4 days relative to control; assay type: functional, cell-based

SMILES	Activity [1]	Activity [2]	Activity [3]	Activity [4]	Activity [5] [um]	Activity [6] [um]	Activity [7] [um]	Activity [8]	Activity [9] [um]	Activity [10] [um]	Activity [11]
CC1=CCC[C@@H]2[C@@](C)(CCC3=CC(=O)OC3)[C@H](C)[C@H](O)C[C@@]12C	inactive	inactive	inactive								
CC1=CCC[C@@H]2[C@@](CO)(CCc3ccoc3)[C@H](C)[C@H](O)C[C@@]12C	inactive			Toxic	236.3	101.7	106.5	Dose-dependent effect	95.3		
CC1=CCC[C@@H]2[C@@](C)(CCc3ccoc3)[C@H](C)[C@@H]3OC(C)(C)O[C@@H]3[C@@]12C		inactive									
CC1=CCC[C@@H]2[C@@](C)(CCc3ccoc3)[C@H](C)[C@H](O)[C@H](O)[C@@]12C	inactive				201.5	115.8	173.1	Dose-dependent effect	104	205.3	Dose-dependent effect
COC1C=C(CC[C@@]2(C)[C@H](C)[C@H](O)[C@H](O)[C@@]3(C)C(C)=CCC[C@H]23)C(=O)O1 (some centres not stated)	inactive	inactive	inactive								
